Results: patent US20100075978A1, “SULFONAMIDE DERIVATIVES AS BRADYKININ ANTAGONISTS” (priority 2006, published 2010)
Structures can show the parent of a compound that is named as a salt. Where two headings read alike, the source gives them in different places.

Legend:
[1] = molecular target: T1, recombinant human B1 receptors (Homo sapiens, UniProt P46663); assay: Functional assay: cytosolic calcium ion concentration measured with plate reader fluorimeter in CHO-B1 cells, agonist LysDABK; assay type: cell-based
T1 construct: host or cells: CHO (CHO-B1)
T1 sequence (P46663 1-353): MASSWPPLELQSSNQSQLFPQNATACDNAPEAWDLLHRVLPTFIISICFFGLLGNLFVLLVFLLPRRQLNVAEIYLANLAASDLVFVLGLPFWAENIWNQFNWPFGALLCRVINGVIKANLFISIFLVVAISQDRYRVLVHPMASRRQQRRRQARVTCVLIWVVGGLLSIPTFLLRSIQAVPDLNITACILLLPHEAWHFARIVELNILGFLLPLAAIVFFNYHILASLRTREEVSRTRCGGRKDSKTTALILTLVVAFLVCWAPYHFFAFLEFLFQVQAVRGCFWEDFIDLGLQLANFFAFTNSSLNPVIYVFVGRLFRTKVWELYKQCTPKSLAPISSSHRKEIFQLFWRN
Experimental: Assessment of Antagonist Potency at B1 and B2 Receptors In Vitro by Measurement of Cytosolic Calcium Ion Concentration with a Plate Reader Fluorimeter in Cells Expressing Recombinant Human B1 or B2 Receptors
Chinese hamster ovary (CHO) cells stably expressing recombinant human B1 (CHO-B1, Euroscreen) or B2 (CHO-B2, Perkin-Elmer) receptors were cultured in Dulbecco's Modified Eagle's Medium (DMEM) containing 10% Fetal Calf Serum (FCS), 100 U/ml penicillin, 0.1 mg/ml streptomycin, 0.25 μg/ml amphotericin B, 1% Minimum Essential Medium Eagle (MEM), non essential amino acid solution, 600 μg/ml G418, 1% pyruvate (for the B2 cell line). Cells were kept at 37° C. in a humidified incubator in an atmosphere of 5% CO2/95% air and were passaged 1:4 three times a week. Cells were plated at 1.5-2.5×10^4 cell/well on standard 96-well microplates, measurements of cytosolic calcium ion concentration ([Ca^2+]i) were carried out 1-2 days after cell plating.
Measurements of [Ca^2+]i were carried out on CHO-B1 and CHO-B2 cells stably expressing human B1 and B2 receptors, respectively. Cells were grown in standard 96-well microplates and before the measurement were loaded with a fluorescent Ca^2+-sensitive dye, fluo-4/AM (2 μM): after removing the culture medium the dye was added to the cells (dissolved in assay buffer: 145 mM NaCl, 5 mM KCl, 2 mM MgCl2, 2 mM CaCl2, 10 mM HEPES, 20 mM D-glucose, 2 mM probenecid, 100 μl/well) and cells were incubated at 37° C. in a humidified incubator in an atmosphere of 5% CO2/95% air for 40-120 min. To stop dye loading cells were washed twice with assay buffer. After washing, various concentrations of the test compounds (diluted in extracellular medium from a DMSO stock solution, final DMSO concentration was <0.1%) or buffer were added to each well depending on the experimental setup. After incubation at 37° C. for 20-25 min. baseline and agonist-evoked changes of [Ca^2+]i were measured column by column with a plate reader fluorimeter (Fluoroskan Ascent, Labsystems). Excitation and detection of emission was carried out from the bottom of the plate. Filters used for Fluo-4: excitation filter—485 nm, emission filter—538 nm. The whole measurement process was performed at 37° C. and was controlled by custom software. Inhibitory potency of the test compounds was assessed by measuring the reduction in the agonist-evoked [Ca^2]i-elevation in the presence of different concentrations of the compounds. The agonists were LysDABK for CHO-B1, and bradykinin for CHO-B2 cells. Agonists were applied at an EC80 concentration, the EC80-values were derived from daily determined dose-response curves. Fluorescence data were expressed as ΔF/F (fluorescence change normalized to baseline). All treatments on a single plate were measured in multiple wells. Data from all wells with the same treatment were averaged and the average values were used for analysis. Inhibitory potency of a compound at a single concentration point was expressed as percent inhibition of the control agonist response. Sigmoidal concentration-inhibition curves were fitted to the data (derived from at least three independent experiments) and IC50-values were determined as the concentration that produces half of the maximal inhibition caused by the compound.

[2] = molecular target: T2, human recombinant bradykinin B1 receptor (Homo sapiens, UniProt P46663); assay: Human recombinant bradykinin B1 receptor binding
T2 construct: purchased Euroscreen ES-091; host or cells: CHO cells
T2 sequence (P46663 1-353): T1 sequence (P46663 1-353)
Experimental: 1. Human Recombinant Bradykinin B1 Receptor Binding
Binding assays were carried out on human recombinant bradykinin) receptors (expressed in CHO cells) according to the Euroscreen Technical Data Sheet (Cat.No.:ES-091). 20 μg protein/tube was incubated with [3,4-prolyl-3,4-^3H(N)]-[Des-Arg^10] Kallidin as radioligand. Non specific binding was determined in the presence of 10 μM Lys-des-Arg^9-Bradykinin. The final incubation volume was 250 μl. Samples were incubated for 15 min. at 25° C. then were rapidly vacuum filtered through GF/B filters presoaked for at least 1 h in 0.5% PEI. Radioactivity was determined by liquid scintillation spectroscopy.

[3] = CHO-B1 cells, LysDABK at EC80, [Ca2+]i, read-out: B1 func.
[4] = radioligand [3H]-[Des-Arg10] Kallidin, CHO cell membranes, read-out: B1 binding

Molecule | IC50 [1, 3] [nM] | Ki [2, 4] [nM] | IC50 ([1]; reference compounds, functional test, read-out: IC50) [nM] | Ki ([2]; reference compounds, binding test, read-out: Ki) [nM]
O=C(NCCCN1CCC(N2CCCCC2)CC1)c1ccc(S(=O)(=O)Nc2ccccc2Oc2ccc(F)cc2Cl)cc1 [Example 116, N-(3-[1,4′]Bipiperidinyl-1′-yl-propyl)-4-[2-(2-chloro-4-fluoro-phenoxy)-phenylsulfamoyl]-benzamide] | < 20 | < 20 | – | –
CN1CCC(N2CCC(CCNC(=O)c3ccc(S(=O)(=O)Nc4ccccc4Oc4ccc(Cl)cc4Cl)cc3)CC2)CC1 [Example 24, 4-[2-(2,4-Dichloro-phenoxy)-phenylsulfamoyl]-N-[2-(1-methyl-[1,4′]bipiperidinyl-4-yl)-ethyl]-benzamide] | < 20 | < 20 | – | –
O=C(NCc1ccc(CC2CCNCC2)cc1)c1ccc(S(=O)(=O)Nc2ccccc2Oc2ccc(Br)cc2Cl)cc1 [Example 166, 4-[2-(4-Bromo-2-chloro-phenoxy)-phenylsulfamoyl]-N-(4-piperidin-4-ylmethyl-benzyl)-benzamide hydrochloride] | 20 to 100 | 20 to 100 | – | –
O=C(NCCN1CCN(c2ccccn2)CC1)c1ccc(S(=O)(=O)Nc2ccccc2Oc2ccc(Cl)cc2Cl)cc1 [Example 20, 4-[2-(2,4-Dichloro-phenoxy)-phenylsulfamoyl]-N-[2-(4-pyridin-2-yl-piperazin-1-yl)-ethyl]-benzamide trifluoroacetate] | 20 to 100 | 20 to 100 | – | –
O=C(Nc1ccc(N2CCC(N3CCCCC3)CC2)cc1)c1ccc(S(=O)(=O)Nc2cc(F)ccc2Oc2ccc(Br)cc2)cc1 [Example 58, N-(4-[1,4′]Bipiperidinyl-1′-yl-phenyl)-4-[2-(4-bromo-phenoxy)-5-fluoro-phenylsulfamoyl]-benzamide] | < 20 | < 20 | – | –
O=C(NCCCN1CCC(N2CCCCC2)CC1)c1ccc(S(=O)(=O)Nc2ccccc2Oc2ccccc2)cc1 [Example 152, N-(3-[1,4′]Bipiperidhlyl-1′-yl-propyl)-4-(2-phenoxy-phenylsulfamoyl)-benzamide] | 20 to 100 | 20 to 100 | – | –
O=C(N[C@H]1CC[C@H](CCN2CCCC2)CC1)c1ccc(S(=O)(=O)Nc2ccccc2Oc2ccc(F)cc2Cl)cc1 [Example 121, trans-4-[2-(2-Chloro-4-fluoro-phenoxy)-phenylsulfamoyl]-N-[4-(2-pyrrolidin-1-yl-ethyl)-cyclohexyl]-benzamide] | 20 to 100 | 20 to 100 | – | –
O=C(NCCCN1CCC(N2CCCCC2)CC1)c1ccc(S(=O)(=O)Nc2ccccc2Oc2ccc(Br)cc2)cc1 [Example 111, N-(3-[1,4′]Bipiperidinyl-1′-yl-propyl)-4-[2-(4-bromo-phenoxy)-phenylsulfamoyl]-benzamide] | < 20 | < 20 | – | –
O=C(NCCN1CCN(c2ccncc2)CC1)c1cccc(S(=O)(=O)Nc2ccccc2Oc2ccc(Cl)cc2Cl)c1 [Example 10, 3-[2-(2,4-Dichloro-phenoxy)-phenylsulfamoyl]-N-[2-(4-pyridin-4-yl-piperazin-1-yl)-ethyl]-benzamide dihydrochloride] | 20 to 100 | < 20 | – | –
O=C(NCCN1CCN(c2ccncc2)CC1)c1ccc(S(=O)(=O)Nc2ccccc2Oc2ccc(Cl)cc2Cl)cc1 [Example 1, 4-[2-(2,4-Dichloro-phenoxy)-phenylsulfamoyl]-N-{2-[4-pyridin-4-yl-piperazin-1-yl)-ethyl]-benzamide dihydrochloride] | < 20 | < 20 | – | –
CC(CNC(=O)c1ccc(S(=O)(=O)Nc2ccccc2Oc2ccc(Cl)cc2Cl)cc1)N1CCN(c2ccncc2)CC1 (stereo not shown) [Example 28, 4-[2-(2,4-Dichloro-phenoxy)-phenylsulfamoyl]-N-{2-[4-pyridin-4-yl-piperazin-1-yl)-propyl]-benzamide] | < 20 | < 20 | – | –
O=C(NCCCC1CCNCC1)c1ccc(S(=O)(=O)Nc2ccccc2Oc2ccc(Br)cc2Cl)cc1 [Example 30, 4-[2-(4-Bromo-2-chloro-phenoxy)-phenylsulfamoyl]-N-(3-piperidin-4-yl-propyl)-benzamide hydrochloride] | 20 to 100 | 20 to 100 | – | –
O=C(Nc1ccc(N2CCC(N3CCCCC3)CC2)cc1)c1ccc(S(=O)(=O)Nc2ccccc2Oc2ccc(C(F)(F)F)cc2)cc1 [Example 127, N-(4-[1,4′]Bipiperidinyl-1′-yl-phenyl)-4-[2-(4-trifluoromethyl-phenoxy)-phenylsulfamoyl]-benzamide] | < 20 | 20 to 100 | – | –
O=C(NCCCN1CCC(N2CCCCC2)CC1)c1ccc(S(=O)(=O)Nc2ccccc2Oc2ccc(Cl)cc2Cl)cc1 [Example 3, N-(3-[1,4′]Bipiperidinyl-1′-yl-propyl)-4-[2-(2,4-dichloro-phenoxy)-phenylsulfamoyl]-benzamide] | < 20 | < 20 | – | –
4-[1-(3,4-Dichloro-phenoxy)-phenylsulfamoyl]-N-[3-(4-pyridin-4-yl-piperazin-1-yl)-propyl]-benzamide [Example 66] | < 20 | < 20 | – | –
O=C(Nc1ccc(N2CCC(N3CCCCC3)CC2)cc1)c1ccc(S(=O)(=O)Nc2ccccc2Oc2ccc(Br)cc2Cl)cc1 [Example 169, N-(4-[1,4′]Bipiperidinyl-1′-yl-phenyl)-4-[2-(4-bromo-2-chloro-phenoxy)-phenylsulfamoyl]-benzamide] | < 20 | < 20 | – | –
O=C(NCCc1ccc(C2=NCCN2)cc1)c1ccc(S(=O)(=O)Nc2ccccc2Oc2ccc(Cl)cc2)cc1 [Example 6, 4-[2-(4-Chloro-phenoxy)-phenylsulfamoyl]-N-{2-[4-(4,5-dihydro-1H-imidazol-2-yl)-phenyl]-ethyl}-benzamide] | < 20 | < 20 | – | –
O=C(NCCc1ccc(C2=NCCN2)cc1)c1ccc(S(=O)(=O)Nc2ccccc2Oc2ccc(Cl)c(Cl)c2)cc1 [Example 4, 4-[2-(3,4-Dichloro-phenoxy)-phenylsulfamoyl]-N-{2-[4-(4,5-dihydro-1H-imidazol-2-yl)-phenyl]-ethyl}-benzamide] | < 20 | < 20 | – | –
O=C(NCCN1CCN(c2cnccn2)CC1)c1ccc(S(=O)(=O)Nc2ccccc2Oc2ccc(Br)cc2Cl)cc1 [Example 159, 4-[2-(4-Bromo-2-chloro-phenoxy)-phenylsulfamoyl]-N-[2-(2,3,5,6-tetrahydro-[1,2′]bipyrazinyl-4-14)-ethyl]-benzamide] | 20 to 100 | 20 to 100 | – | –
CCCN1C(=O)[C@H](NC(=O)Nc2ccc(N3CCC(N4CCCCC4)CC3)cc2)N=C(c2ccc(C)cc2)c2ccccc21 [compound 3, N-[4-(,4′-bipiperidin)-1′-ylphenyl]-N′-[(3R)-2,3-dihydro-5-(4-methyl-phenyl)-2-oxo-1-propyl-1H-1,4-benzodiazepin-3-yl]-urea, reference compound] | – | – | 64.5 | 13.4
